According to patent publication US6514969B2, “β-amyloid inhibitors, processes for preparing them, and their use in pharmaceutical compositions” (Boehringer Ingelheim Pharma KG, priority 2000, dated 2003):

system: Aβ formation in human astroglioma cells (U 373) transfected with human APP751 (U373-K10); experiment: Inhibition of Aβ formation in medium of APP751-overexpressing U373-K10 cells (ELISA); format: cell-based; settings: U373 MG
Excerpt: The compounds according to the invention are characterized in that they inhibit the process of the formation of Aβ or its release from cells. This property was investigated according to the test described below.
The inhibition of Aβ formation was investigated in the medium of a cell line overexpressing APP751. For this purpose, human astroglioma cells (U 373, ATCC) were stably transfected with the gene for human APP751 under the control of a CMV promoter (vector pRC-CMV). A clone with a high APP751 expression (U373-K10) was selected. In order to carry out the assay the cells are plated out in 96-well plates (Falcon) in Dulbecco's-Minimal-Essential medium (DMEM, Bio-Whittaker) with 10% FCS and cultivated to confluence at 37° C./5% CO2.
The substances to be tested are first dissolved in 100% DMSO and then diluted to the test concentration in culture medium, so that the DMSO concentration of the test solution is always below 0.5%.
150 μl of the test solution are added per well to a confluent culture plate which has previously been washed once with DMEM, and pre-incubated for about 16 hours. This solution is replaced by 150 μl of fresh test solution after 1 wash and incubated again for 4 hours.
100 μl of this four-hour supernatant are transferred to an ELISA plate (Nunc) coated with the antibody 6E10 (specific for Aβ1-16, Senetek), and incubated overnight at 4° C. The Aβ is determined the next day by means of the alkaline phosphatase-conjugated antibody 6B10, which is specific for Aβ32-40.

Row | SMILES | IC50
1 | O=c1[nH]c2ccccc2n1C1CCN(CCCc2c(-c3ccccc3)nc3ccccn23)CC1 [Example 12, 1-{1-[3-(2-phenylimidazo[1,2-a]pyridin-3-yl)propyl]piperidin-4-yl}-1,3-dihydrobenzimidazol-2-one] | 12 µM
2 | Clc1ccc(-c2nc3ccccn3c2CCCN2CCN(Cc3ccccc3)CC2)cc1 [Example 14, 3-[3-(4-benzylpiperazin-1-yl)propyl]-2-(4-chlorophenyl)imidazo[1,2-a]pyridine] | 30 µM

Continued by falling IC50, values first:

Row | IC50 | SMILES
3 | 35 µM | Clc1ccc(CN2CCN(CCCc3c(-c4ccc(Cl)cc4)nc4ccccn34)CC2)cc1 [Example 20, 3-{3-[4-(4-chlorobenzyl)piperazin-1-yl]propyl}-2-(4-chlorophenyl)imidazo[1,2-a]pyridine]
4 | 20 µM | O=C(/C=C/c1c(-c2ccccc2)nc2ccccn12)N1CCC(n2c(=O)[nH]c3ccccc32)CC1 [Example 21]
5 | 15 µM | O=c1[nH]c2ccccc2n1C1CCN(CCCc2c(-c3ccc(Cl)cc3)nc3ccccn23)CC1 [Example 13, 1-{1-[3-(2-p-chlorophenylimidazo[1,2-a]pyridin-3-yl)propyl]piperidin-4-yl}-1,3-dihydrobenzimidazol-2-one]
